In US9927424B2, “Assays for identifying compounds that modulate bitter taste” (Chromocell Corporation, priority 2013, dated 2018):

Experiments:
TAS2R44 = target: T1, TAS2R44 (Homo sapiens, UniProt P59538); experiment: Calcium fluorescence functional assay, TAS2R44 cell line with mouse Gα15; format: cell-based; conditions: for TAS2R44 bitter receptor activity (functional response): 20 mM tastant, change in intracellular calcium; for EC50: approximately, increasing concentrations of tastant
T1 construct: expressed in transfected cells
T1 sequence (P59538 1-309): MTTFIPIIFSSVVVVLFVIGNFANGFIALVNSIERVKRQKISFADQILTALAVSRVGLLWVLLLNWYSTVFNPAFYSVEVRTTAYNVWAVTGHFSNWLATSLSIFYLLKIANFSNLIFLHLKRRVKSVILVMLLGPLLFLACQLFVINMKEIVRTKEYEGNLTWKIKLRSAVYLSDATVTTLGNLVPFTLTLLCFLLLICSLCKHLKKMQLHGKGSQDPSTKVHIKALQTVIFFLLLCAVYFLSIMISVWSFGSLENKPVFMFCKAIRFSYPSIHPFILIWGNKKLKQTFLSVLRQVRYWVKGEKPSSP
Method: (§1) A panel of cell lines expressing eight specific bitter taste receptors, a subset of the panel of twenty-five bitter receptors described in International Patent Application Publication WO 2010/088633 (see, e.g., Example 26), was used for the purpose of these analyses. Accordingly, each cell line of the panel expressed a human bitter taste receptor and mouse Gα15 signaling protein.
(§2) Each of the Examples below utilized the following functional assay: • Day 1: Stable cell lines were seeded onto black wall/clear bottom 96-well, plates (e.g., Corning, 3904). Approximately 40K cells were added per well and incubated at 37° C., 5% CO2 overnight in cell growth media (DMEM (Sigma, D5796) supplemented with 10% Fetal Bovine Serum (Sigma, 5178), 2 mM Glutamine (Sigma, G7513)). • Day 2: Growth media was discarded and cells were incubated at 37° C., 5% CO2 for 60 minutes in 100 ul of load solution containing 1× Ca-3 dye (Molecular Devices, R8090), 1% DMSO in buffer containing 130 mM NaCl, 2 mM CaCl2, 5 mM KCl, 1.2 mM MgCl2, 10 mM HEPES and 10 mM Glucose (pH 7.0). Probenecid was not included in the load solution. • Functional assay: After dye loading, cell plates were placed in a fluorescent plate reader (e.g., FDSS6000 (Hamamatsu, Japan)) and receptor stimulation was measured by adding 50 ul of 3× concentrated ligand/agonist stock. Fluorescence was monitored continuously for 10 s before agonist addition and for 100-250 s after stimulation with agonist.
(§3) Receptor Activation is defined as follows: • % Activation=[((Maximum signal fluorescence−Minimum signal fluorescence)−(Maximum control fluorescence−Minimum control fluorescence))/(Maximum buffer fluorescence−Minimum buffer fluorescence)]*100 • Functional Response=[(Maximum signal fluorescence−Minimum signal fluorescence)−(Maximum control fluorescence−Minimum control fluorescence)] • Signal fluorescence: refers to the change in fluorescence seen with addition of ligand • Control fluorescence: refers to the change in fluorescence seen with addition of buffer (negative control) • Calcium signals from ligand and control were normalized to the basal fluorescence of the cells prior to the stimulation.
(§4) A concentration analysis was performed and EC50 values were calculated by nonlinear regression using the formula: Y=Bottom+(Top−Bottom)/(1+10^((Log EC50−X)*Hill Slope)), X=log of dose or concentration, Y=Response (increasing as X increases), Top=maximum signal, Bottom=minimum signal. EC50 (half maximal effective concentration) refers to the molar concentration of the agonist which produces 50% of the maximum possible effective response from that agonist.

TAS2R4 = target: T2, TAS2R4 (Homo sapiens, UniProt Q9NYW5); experiment: Calcium fluorescence functional assay, TAS2R4 cell line with mouse Gα15; format: cell-based; conditions: for TAS2R4 bitter receptor activity (functional response): 20 mM tastant, change in intracellular calcium; for EC50: approximately, increasing concentrations of tastant
T2 construct: expressed in transfected cells
T2 sequence (Q9NYW5 1-299): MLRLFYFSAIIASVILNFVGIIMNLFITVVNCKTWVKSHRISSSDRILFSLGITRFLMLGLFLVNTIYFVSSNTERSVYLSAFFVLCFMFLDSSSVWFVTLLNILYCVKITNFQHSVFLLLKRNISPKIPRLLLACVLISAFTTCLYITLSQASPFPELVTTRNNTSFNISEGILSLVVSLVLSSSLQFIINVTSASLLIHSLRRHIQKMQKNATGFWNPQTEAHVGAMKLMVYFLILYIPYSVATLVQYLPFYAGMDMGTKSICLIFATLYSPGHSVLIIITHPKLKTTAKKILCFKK
Method: as §1, §2, §3, §4

TAS2R38 (PAV) = target: T3, TAS2R38 (PAV) (Homo sapiens, UniProt P59533, A49P/I296V); experiment: Calcium fluorescence functional assay, TAS2R38 (PAV) cell line with mouse Gα15; format: cell-based; conditions: for TAS2R38 (PAV) bitter receptor activity (functional response): 20 mM tastant, change in intracellular calcium; for EC50: approximately, increasing concentrations of tastant
T3 construct: expressed in transfected cells
T3 sequence (P59533 1-333 A49P/I296V): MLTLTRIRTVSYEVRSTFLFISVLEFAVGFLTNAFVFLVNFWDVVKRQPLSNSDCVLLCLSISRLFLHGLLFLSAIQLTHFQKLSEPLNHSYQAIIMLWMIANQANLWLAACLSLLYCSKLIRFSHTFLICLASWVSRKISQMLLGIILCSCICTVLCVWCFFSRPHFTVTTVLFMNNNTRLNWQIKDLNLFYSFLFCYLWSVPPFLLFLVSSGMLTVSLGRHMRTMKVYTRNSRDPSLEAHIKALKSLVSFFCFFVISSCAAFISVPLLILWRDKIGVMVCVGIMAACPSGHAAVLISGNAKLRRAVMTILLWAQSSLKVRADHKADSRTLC
Method: as §1, §2, §3, §4

TAS2R14 = target: T4, TAS2R14 (Homo sapiens, UniProt Q9NYV8); experiment: Calcium fluorescence functional assay, TAS2R14 cell line with mouse Gα15; format: cell-based; conditions: for TAS2R14 bitter receptor activity (functional response): 20 mM tastant, change in intracellular calcium; for EC50: approximately, increasing concentrations of tastant
T4 construct: expressed in transfected cells
T4 sequence (Q9NYV8 1-317): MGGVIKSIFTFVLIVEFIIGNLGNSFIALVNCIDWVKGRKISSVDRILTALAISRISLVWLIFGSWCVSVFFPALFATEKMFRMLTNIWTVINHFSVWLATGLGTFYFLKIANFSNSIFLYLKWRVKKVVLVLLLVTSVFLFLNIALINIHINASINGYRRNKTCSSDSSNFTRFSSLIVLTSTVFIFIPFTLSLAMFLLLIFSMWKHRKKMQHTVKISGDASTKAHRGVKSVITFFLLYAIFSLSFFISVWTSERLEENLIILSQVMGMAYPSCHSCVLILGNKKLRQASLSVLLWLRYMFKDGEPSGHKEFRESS
Method: as §1, §2, §3, §4

TAS2R13 = target: T5, TAS2R13 (Homo sapiens, UniProt Q9NYV9); conditions: PCT/US12/61400; cited from earlier work
T5 construct: expressed in transfected cells
T5 sequence (Q9NYV9 1-303): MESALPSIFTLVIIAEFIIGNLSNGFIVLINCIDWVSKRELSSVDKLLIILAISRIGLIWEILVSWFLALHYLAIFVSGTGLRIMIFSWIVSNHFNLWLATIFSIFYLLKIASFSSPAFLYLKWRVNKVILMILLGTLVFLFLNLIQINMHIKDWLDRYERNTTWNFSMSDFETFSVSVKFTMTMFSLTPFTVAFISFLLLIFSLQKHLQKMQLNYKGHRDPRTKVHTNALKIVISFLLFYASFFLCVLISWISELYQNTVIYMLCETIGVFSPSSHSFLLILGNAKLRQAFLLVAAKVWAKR

Row | Structure (SMILES) | TAS2R44 bitter receptor activity (functional response) (TAS2R44) | TAS2R4 bitter receptor activity (functional response) (TAS2R4) | TAS2R38 (PAV) bitter receptor activity (functional response) (TAS2R38 (PAV)) | TAS2R14 bitter receptor activity (functional response) (TAS2R14) | EC50 (TAS2R44) [mM] | EC50 (TAS2R4) [mM] | EC50 (TAS2R14) [mM] | EC50 (TAS2R38 (PAV)) [mM] | TAS2R13 response to stimulation, previously shown (TAS2R13)
1 | C/C=C/C=C/C(=O)[O-].[K+] [potassium sorbate] | induced | induced | induced | induced |  |  |  |  | 
2 | O=C([O-])[C@H](O)[C@@H](O)[C@H](O)[C@H](O)CO.[K+] [potassium gluconate] | induced | induced | induced | induced |  |  |  |  | 
3 | O=[N+]([O-])[O-].[K+] [potassium nitrate] | induced | induced | induced | induced |  |  |  |  | 
4 | CC(=O)[O-].[K+] [potassium acetate] | induced | induced | did not induce | induced | 5 to 10 | 5 to 10 | 5 to 10 |  | 
5 | O=C([O-])c1ccccc1.[K+] [potassium benzoate] | induced | induced | induced | induced | 5 to 10 | 5 to 10 | 5 to 10 | 5 to 10 | 
6 | [Cl-].[K+] [KCl] |  |  | strongly and specifically responded |  |  |  |  | 5 to 15 | specifically respond
7 | O=P([O-])([O-])O.[K+].[K+] [potassium phosphate (dibasic)] | induced | induced | induced | induced |  |  |  |  | 
8 | O=S(=O)([O-])[O-].[K+].[K+] [potassium sulfate] | induced | induced | induced | induced |  |  |  |  | 
